Tests used:
Assay type in all cases: in vivo
[1] = system: soybean; assay: Phytotoxicity of adjuvant to soybean; conditions: 7 days after spray application
Protocol: (§1) The plants were sprayed with water at a rate of approximately 500 litres per hectare, the water containing 0.1% v/v or 0.2% v/v adjuvant. The plants were assessed for phytotoxicity 7 days after spray application. Each experiment was replicated twice and the results averaged. In the control experiment the plants were sprayed with water and no phytotoxicity was observed.

[2] = system: French bean; assay: Phytotoxicity of adjuvant to French bean; conditions: 7 days after spray application
Protocol: as §1

[3] = system: Chinese cabbage; assay: Phytotoxicity of adjuvant to Chinese cabbage; conditions: 7 days after spray application
Protocol: as §1

[4] = system: brachiaria platyphyla (BRAPL), digitaria sanguinalis (DIGSA), polygonum convolvulus (POLCO), amaranthus tuberculatus (AMATU); assay: Adjuvant with herbicide mesotrione, track sprayer, mean across four weed species
[5] = system: brachiaria platyphyla (BRAPL); assay: Adjuvant with herbicide mesotrione on BRAPL
[6] = system: digitaria sanguinalis (DIGSA); assay: Adjuvant with herbicide mesotrione on DIGSA
[7] = system: polygonum convolvulus (POLCO); assay: Adjuvant with herbicide mesotrione on POLCO
[8] = system: amaranthus tuberculatus (AMATU); assay: Adjuvant with herbicide mesotrione on AMATU
[9] = system: brachiaria platyphyla (BRAPL), digitaria sanguinalis (DIGSA), polygonum convolvulus (POLCO); assay: Adjuvant with herbicide mesotrione, mean across three weed species (Example 20); conditions: mesotrione 30, 60 or 90 g/ha; Sample 13 0.2%, Tween 20 0.5%; 14 and 21 days
Protocol: (§2) In this example Sample 13 from Table 1 was compared to the oil adjuvant blend Turbocharge™. The herbicide fomesafen was applied to the weed species xanthium strumarium (XANST), setaria viridis (SETVI), abutilon theophrasti (ABUTH), and chenopodium album (CHEAL) at rates of 60 or 120 grams per hectare, using a laboratory track sprayer. Each experiment was replicated four times and the percentage damage to the weeds was assessed visually at time periods of 7, 14 and 21 days after application. Each adjuvant was applied at a rate of 0.5% of the volume of the spray water. Four effects were evaluated: pesticide rate (2 levels), adjuvant type (two levels), weed species (four levels) and days after application (three levels). A standard simple linear model was constructed to judge the significance of these effects. […] The effect of each adjuvant was pulled out from the model and the least significant differences evaluated using a Student's t method. […]
In this example the rate response of the butylene oxide adjuvant 13 of Table 1 was measured to display the excellent performance of this adjuvant compared to the commercial adjuvant Tween™20, used at a rate of 0.5% by volume. […] In each case the experiments were replicated four times and the percentage damage to the weeds was assessed visually at time periods of 14 and 21 days after application.

[10] = system: brachiaria decumbens (BRADE), digitaria sanguinalis (DIGSA), polygonum convolvulus (POLCO), amaranthus retroflexus (AMARE); assay: Adjuvant with herbicide mesotrione, mean across four weed species (Example 28); conditions: mesotrione 45 or 90 g/ha; Sample 28 0.2%, Tween 20 0.5%; 7, 14 and 21 days
Protocol: as §2, with “levels).” for “levels). A standard simple linear model was constructed to judge the significance of these effects.”
In this example the rate response of a non-ethoxylated butylene oxide adjuvant was measured at an adjuvant rate of 0.2% by volume in order to display the excellent performance of this adjuvant compared to the commercial adjuvant' Tween 20, which was used at a rate of 0.5% by volume. […] In each case the experiments were replicated three times and the percentage damage to the weeds was assessed visually at time periods of 7, 14 and 21 days after application. […]

[11] = mesotrione 45 and 90 g/ha, adjuvants 0.5% of spray water, 7, 14 and 21 days after application
[12] = mesotrione 45 or 90 g/ha, Sample 27 0.2%, Tween 20 0.5%, 7, 14 and 21 days
[13] = mesotrione 30, 60 or 90 g/ha, Sample 13 0.2%, Tween 20 0.5%, 14 and 21 days

Molecule: CCCCCCCC/C=C\CCCCCCCCOCCOCCOCCOCCOCCOCCOCCOCCOCCOCCO [Genapol O100]
- Soybean % phytotoxicity ([1]; 0.1% v/v adjuvant in water): 3.5%
- Soybean % phytotoxicity ([1]; 0.2% v/v adjuvant in water): 15%
- French bean % phytotoxicity ([2]; 0.1% v/v adjuvant in water): 5%
- French bean % phytotoxicity ([2]; 0.2% v/v adjuvant in water): 10%
- Chinese cabbage % phytotoxicity ([3]; 0.1% v/v adjuvant in water): 2%
- Chinese cabbage % phytotoxicity ([3]; 0.2% v/v adjuvant in water): 10%

Molecule: Tween 20
- mean efficacy (percentage damage to the weeds), All weeds [4, 11]: 63.861; B %
- mean efficacy (percentage damage to the weeds), All weeds [4, 12]: 54.54; A %
- mean efficacy (percentage damage to the weeds), BRAPL [5, 13]: 26.11; B %
- mean efficacy (percentage damage to the weeds), BRAPL [5, 11]: 44.72; B %
- mean efficacy (percentage damage to the weeds), BRAPL [5, 12]: 33.06; B %
- mean efficacy (percentage damage to the weeds), DIGSA [6, 13]: 45.55; A %
- mean efficacy (percentage damage to the weeds), DIGSA [6, 11]: 48.33; B %
- mean efficacy (percentage damage to the weeds), DIGSA [6, 12]: 41.67; A %
- mean efficacy (percentage damage to the weeds), POLCO [7, 13]: 32.77; B %
- mean efficacy (percentage damage to the weeds), POLCO [7, 11]: 95.44; A %
- mean efficacy (percentage damage to the weeds), POLCO [7, 12]: 73.61; A %
- mean efficacy (percentage damage to the weeds), AMATU [8, 11]: 66.94; AB %
- mean efficacy (percentage damage to the weeds), AMATU [8, 12]: 69.86; A %
- mean efficacy (percentage damage to the weeds), All weeds [9]: 26.11; B %
- Mean kill (%) [10]: 65.8%

Source: US20120172228A1, “ALCOHOL ALKOXYLATES AS ADJUVANTS FOR AGROCHEMICAL FORMULATIONS” (SYNGENTA CROP PROTECTION, LLC, priority 2009, published 2012)
